Earlier results, collected in patent US4866036A, “Dipeptidyl 5-0,6-0-acyl-2-amino-2-deoxy-D-glucofuranose compositions and methods of use in aids-immunocompromised human hosts” (priority 1987, dated 1989).

What was measured:
[1] = target: HIV reverse transcriptase (Human immunodeficiency virus type 1 group M subtype B, UniProt P04585)
[2] = in vivo
[3] = human, in vivo
[4] = test system: HIV
[5] = test system: reverse transcriptase in several retroviruses; conditions: in vitro
[6] = human, in vivo; remark: listed apart in the source

Row | Molecule | clinical effect in AIDS or ARC patients [3] | toxicity / adverse effects in patients [6] | other results
1 | Cc1ccc(C(=O)Nc2ccc(S(=O)(=O)O)c3cc(S(=O)(=O)O)cc(S(=O)(=O)O)c23)cc1NC(=O)c1cccc(NC(=O)Nc2cccc(C(=O)Nc3cc(C(=O)Nc4ccc(S(=O)(=O)O)c5cc(S(=O)(=O)O)cc(S(=O)(=O)O)c45)ccc3C)c2)c1 [Suramin] |  |  | HIV reverse transcriptase activity [1]: Potent inhibitor
2 | Cc1cn([C@H]2C[C@H](N=[N+]=[N-])[C@@H](CO)O2)c(=O)[nH]c1=O [Azidothymidine, 3'-azido 3'-deoxythymidine] |  |  | half-life in the body [2]: relatively short half-life; penetration of the central nervous system [2]: effectively penetrates central nervous system
3 | NC(=O)c1ncn([C@@H]2O[C@H](CO)[C@@H](O)[C@H]2O)n1 [Ribavirin, 1β-D ribofuranosyl 1,2,4-triazole 3-carboxamide] | inhibited viral replication and improved immune function |  | 
4 | α-Interferon | induced tumor regression in some AIDS related Kaposi's sarcoma cases |  | growth of HIV [4]: Checks the growth of HIV in vitro
5 | ammonium 21-tungsto-9 antimoniate [HPA 23] | no therapeutic benefit has been documented |  | reverse transcriptase in several retroviruses [5]: Inhibits reverse transcriptase; growth of HIV [4]: some tendency to check the growth of HIV
6 | CC(C)(N1CC1C#N)N1CC1C(N)=O (centres unmarked) [Azimexon] | improvements in symptoms and immune function in patients with ARC but not AIDS | mild hemolysis | 
7 | O=C(O)P(=O)(O)O [Foscarnet, trisodium phosphonoformate] |  | serious side effects | HIV reverse transcriptase activity [1]: Inhibits HIV reverse transcriptase activity in vitro
8 | CC(=O)Nc1ccc(C(=O)O)cc1.CC(=O)Nc1ccc(C(=O)O)cc1.CC(=O)Nc1ccc(C(=O)O)cc1.CC(O)CN(C)C.CC(O)CN(C)C.CC(O)CN(C)C.O=c1[nH]cnc2c1ncn2[C@@H]1O[C@H](CO)[C@@H](O)[C@H]1O [Inosine pranobex] | improve immune function in ARC patients |  | 
9 | CO[C@H]1/C=C/O[C@@]2(C)Oc3c(C)c(O)c4c(c3C2=O)C2=NC3(CCN(CC(C)C)CC3)NC2=C(NC(=O)/C(C)=C\C=C\[C@H](C)[C@H](O)[C@@H](C)[C@@H](O)[C@@H](C)[C@H](OC(C)=O)[C@@H]1C)C4=O [Ansamycin, rifabutin] | some efficacy |  | 
10 | CC(C)(S)[C@@H](N)C(=O)O [D-Penicillamine, 3-mercapto-D-valine] | suppressed the virus | temporarily depressed T cell levels | 
